Literature values in patent US20120178771A1, “Oral Pharmaceutical Compositions of Buprenorphine and Method of Use” (priority 2008, published 2012).

Legend:
[1] = orally administered, versus placebo; pain assessed 0.5 to 6 hours
[2] = human, in vivo

Row | Structure (SMILES) | analgesia over the 6 hours, differences between the groups [1] | dose range required to control pain in about 90% of subjects [2]
1 | CC(=O)Nc1ccc(O)cc1 [acetaminophen (paracetamol), acetaminophen] | no significant differences between the groups in analgesia | 
2 | CN1CC[C@]23c4c5ccc(O)c4O[C@H]2[C@@H](O)C=C[C@H]3[C@H]1C5 [morphine] |  | 8 fold
3 | COc1ccc2c3c1O[C@H]1C(=O)CC[C@@]4(O)[C@@H](C2)N(C)CC[C@]314 [oxycodone] |  | 4 fold
